Data: paper PMC10252594 (Cancers, 2023)
Marks after values point to notes of the source that are not given here.

How the values were obtained:
LNCaP = system: LNCaP; set-up: method as in PMID 34681843; details: AR positive, three days, MTS; cited from earlier work
PC-3 = system: PC-3; set-up: method as in PMID 34681843; details: PC-3, AR negative, three days, MTS; cited from earlier work
LAPC-4 xenografts = assay: Cholesterol/lipid panel in plasma (method B, hospital laboratory); assay type: in vivo, mice
Experimental: Total cholesterol, triglycerides, cholesterol-HDL (high-density lipoproteins), cholesterol-LDL (low-density lipoproteins), cholesterol non-HDL, and the ratio of total cholesterol/cholesterol-HDL were determined in the plasma of mice treated PO with RM-581 (3, 10, and 30 mg/kg) or abiraterone acetate (60 mg/kg). Analyses were performed at the CHU de Québec/L’Enfant-Jésus (Medical Hospital Laboratory; Project N°: 9014625056) using a Cobas Lipid Panel from Roche.

VCaP = assay: PCa cell viability proliferation screening (MTS), VCaP; assay type: cell-based; details: Homo sapiens, 168 h, AR positive, seven days
Experimental: VCaP (4 × 10^4 cells/well) were seeded in 96-well plates in DMEM media supplemented with 10% fetal bovine serum (FBS), penicillin, streptomycin, and sodium pyruvate. 22Rv1 cells (2 × 10^3 cells/well) and LAPC-4 cells (6 × 10^3 cells/well) were seeded in 96-well plates in RPMI media supplemented with 10% FBS, penicillin, streptomycin, and sodium pyruvate. The cells were incubated at 37 °C in a 5% CO2 humidified atmosphere for 24 h before treatment with multiple concentrations of RM-581 dissolved in dimethyl sulfoxide (DMSO). The concentrations used were between 0.01 μM and 50 μM. Treatment lasted for 3 days for all the cell lines except VCaP cells, which were treated for 7 days due to slower proliferation rates. At the end of the assay, 20 μL of MTS (Cell Titer 96 Aqueous, Promega, Nepean, ON, Canada) were added to each well, and the mixture was incubated for 4 h at 37 °C. The plates were subsequently analyzed at 490 nm using a Tecan M-200 microplate reader (Männedorf, Switzerland).

LAPC-4 cells [1] = assay: Apoptosis characterization by flow cytometry (annexin-V/PI); assay type: cell-based, human; details: 72 h
Experimental: This experiment was performed with LAPC-4 cells (3 × 10^5) following the protocol previously reported for PC-3 cells. After the detection of annexin-V and propidium iodide fluorescence, dual parametric dot plots allowed us to calculate the percentage of each cell type: (1) non-apoptotic live cells (annexin-V-negative/PI-negative) in the lower left quadrant; (2) early apoptotic cells (annexin-V-positive/PI-negative) in the lower right quadrant; (3) late apoptotic cells (annexin-V-positive/PI-positive) in the upper right quadrant; and (4) necrotic cells (annexin-V-negative/PI-positive) in the upper left quadrant.

LAPC-4 cells [2] = assay: LAPC-4 cell viability proliferation and combination index assays (MTS, 6 days); assay type: cell-based; details: Homo sapiens, LAPC4, 144 h, LAPC-4, six days of treatment; read-out: IC50, mean of three experiments (Figure 2A)
PC-3 xenograft = system: PC-3 xenograft; set-up: method as in PMID 34681843; details: cited from earlier work
[3] = Toxicity during LAPC-4 xenograft protocol (signs, body weight, histopathology); assay type: in vivo, mice; details: 28 days
Source text: Tissue samples from xenograft experiments were fixed in neutral buffered 10% formalin and processed for routine paraffin embedding. Tissue sections (3 µm) were stained with hematoxylin and eosin (HE) and histologically observed by an independent pathologist. Digital images at 20× magnification of each slide were obtained using the slide scanner NanoZoomer 2.0-HT (Hamamatsu, Bridgewater, NJ, USA). Whole-section images were visualized using the software NDP View (Hamamatsu, Bridgewater, NJ, USA).

LAPC-4 cells [4] = assay: Total cholesterol in LAPC-4 cells (kit); assay type: cell-based, human; details: RM-581 2 μM or atorvastatin 10 μM; for Total cholesterol concentration in LAPC-4 cells: Table S2
Experimental: A cholesterol quantification kit provided by Sigma-Aldrich (Catalog Number MAK043) was used following the manufacturer’s instructions to determine the concentration of total cholesterol, free cholesterol, and cholesteryl ester in samples. The cholesterol contents were measured in samples from two different protocols. […] Secondly, in tumor, liver, and plasma obtained at the end of the LAPC-4 xenograft experiment (control group and the group treated with RM-581 at 10 mg/kg/PO).

LAPC-4 cells [5] = assay: Gene expression study by qPCR; assay type: cell-based, human; details: RM-581 5 µM or atorvastatin 10 µM, CTL fixed at 1.0
Experimental: LAPC-4 cells (3 × 10^5) were treated with RM-581 (1, 2, and 5 µM) at different times (6, 18, 24, and 36 h) and the expression of various genes was determined as previously reported. Primer sequences used for the analysis of each gene are reported in Table S3 (Supplementary Materials).

## C#C[C@]1(O)CC[C@H]2[C@@H]3CCc4cc(OC)c(N5CCN(C(=O)[C@@H]6CCCN6C(=O)c6ccc7ccccc7n6)CC5)cc4[C@H]3CC[C@@]21C [RM-581]
LNCaP
  IC50: 1.2 µM
PC-3
  IC50: 1.2 µM
LAPC-4 xenografts; 10 mg/kg PO, NS vs CTL
  T-CHOL (total cholesterol), plasma: 1182 ± 338 (NS) µg/mL
LAPC-4 xenografts; Figure S3
  plasma triglycerides, cholesterol-HDL, -LDL, non-HDL, ratio total cholesterol/cholesterol-HDL vs control: no significant difference
VCaP
  IC50: 5.78 µM
LAPC-4 cells [1]; 2 to 50 µM
  early and late apoptotic cells: significant and increasing proportion
LAPC-4 cells [1]; 30 and 50 µM
  necrotic cells: very low and non-significant
LAPC-4 cells [1]; 30 and 50 µM, dropped from 92%
  viable cells: 20%
LAPC-4 cells [2]
  IC50: 0.43 ± 0.13 µM
PC-3 xenograft; PC-3 xenograft, PO
  effective oral dose for tumor regression: 60 mg/kg
PC-3 xenograft; tumors from PC-3 xenografts
  FA and cholesterol in tumors: significant decrease
[3]; nude mice, 3, 10, 30 mg/kg PO
  signs of toxicity during xenograft protocol: no signs of apparent toxicity
[3]; nude mice
  body weight of treated vs untreated mice: no significant difference
  histology of liver, kidney and prostate (HE): tissue morphology was not affected
LAPC-4 cells [4]; 18, 36, or 72 h
  Total cholesterol in LAPC-4 cells vs untreated cells: did not show a significant difference
LAPC-4 cells [4]; 18 h
  Total cholesterol concentration in LAPC-4 cells: 68 ± 3
LAPC-4 cells [4]; 36 h
  Total cholesterol concentration in LAPC-4 cells: 69 ± 6
LAPC-4 cells [4]; 72 h (first line, control 66 ± 2)
  Total cholesterol concentration in LAPC-4 cells: 69 ± 4
LAPC-4 cells [5]; 6 h
  ACAT1 mRNA expression: 0.7 *
  ACLY mRNA expression: 0.8
  FASN mRNA expression: 1.0
  HMGCR mRNA expression: 1.9 **
  HMGCS1 mRNA expression: 2.7 **
  LDLR mRNA expression: 1.4
  MVD mRNA expression: 2.7 **
  MVK mRNA expression: 1.2
  SCD1 mRNA expression: 0.7
LAPC-4 cells [5]; 18 h
  ACAT1 mRNA expression: 0.9
  ACLY mRNA expression: 0.4 **
  FASN mRNA expression: 0.5 **
  HMGCR mRNA expression: 1.2
  HMGCS1 mRNA expression: 3.3 **
  LDLR mRNA expression: 1.8 **
  MVD mRNA expression: 1.8 **
  MVK mRNA expression: 1.6
  SCD1 mRNA expression: 0.8
LAPC-4 cells [5]; 24 h
  ACAT1 mRNA expression: 1.1
  ACLY mRNA expression: 0.9
  FASN mRNA expression: 0.6 *
  HMGCR mRNA expression: 2.6 **
  HMGCS1 mRNA expression: 2.4 **
  LDLR mRNA expression: 2.6 **
  MVD mRNA expression: 2.1 **
  MVK mRNA expression: 1.0
  SCD1 mRNA expression: 2.5 **
LAPC-4 cells [5]; 36 h
  ACAT1 mRNA expression: 1.2
  ACLY mRNA expression: 0.9
  FASN mRNA expression: 0.6 *
  HMGCR mRNA expression: 2.5 **
  HMGCS1 mRNA expression: 2.0 **
  LDLR mRNA expression: 2.5 **
  MVD mRNA expression: 1.6 **
  MVK mRNA expression: 1.0
  SCD1 mRNA expression: 3.5 **
